Measurements published in article PMC6431176 (Proceedings of the National Academy of Sciences of the …, 2019).

Molecular target: T1, Stl1 (Saccharomyces cerevisiae, UniProt P39932)
T1 sequence (P39932 1-569): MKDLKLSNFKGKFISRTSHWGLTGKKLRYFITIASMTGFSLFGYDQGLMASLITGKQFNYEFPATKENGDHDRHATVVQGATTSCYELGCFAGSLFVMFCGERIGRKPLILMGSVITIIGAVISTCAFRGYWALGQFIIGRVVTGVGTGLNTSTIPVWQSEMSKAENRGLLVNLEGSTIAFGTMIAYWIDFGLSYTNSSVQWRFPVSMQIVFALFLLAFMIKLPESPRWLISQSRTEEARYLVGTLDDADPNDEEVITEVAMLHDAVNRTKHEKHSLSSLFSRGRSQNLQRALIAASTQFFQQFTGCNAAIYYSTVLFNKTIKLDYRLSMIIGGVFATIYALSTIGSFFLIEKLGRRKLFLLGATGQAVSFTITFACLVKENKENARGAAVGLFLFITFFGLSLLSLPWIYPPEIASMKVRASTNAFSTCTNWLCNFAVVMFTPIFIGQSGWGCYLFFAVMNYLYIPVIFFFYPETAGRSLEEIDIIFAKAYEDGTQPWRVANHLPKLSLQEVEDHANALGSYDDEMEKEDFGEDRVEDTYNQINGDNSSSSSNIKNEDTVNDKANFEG
Experiment: […]-glycerol accumulation in S. cerevisiae
Format: cell-based
Details: labelled compound; 1 mM, Tris/citrate pH 5.0, 30 °C

How did the “14C-glycerol accumulation in S. cerevisiae” value turn out when `OCC(O)CO` [glycerol] was run?
Its value is “higher uptake rate of glycerol by the Stl1 transporter compared with the HGT-1 transporter”.
